Data published in PubChem BioAssay (NCI).
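Assay format: 96-well plates, 48-hour exposure. GI50 is the concentration that inhibits growth by half. TGI marks complete inhibition of growth.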

Experiments:
Test in all cases: growth of human tumour cells (NCI), 48 h
SNB-75 CNS = test system: SNB-75 CNS
UACC-257 melanoma = test system: UACC-257 melanoma
RXF 393 renal = test system: RXF 393 renal
OVCAR-3 ovarian = test system: OVCAR-3 ovarian
SN12C renal = test system: SN12C renal
SK-MEL-2 melanoma = test system: SK-MEL-2 melanoma
SK-OV-3 ovarian = test system: SK-OV-3 ovarian
IGROV1 ovarian = test system: IGROV1 ovarian
MCF7 breast = test system: MCF7 breast
HS 578T breast = test system: HS 578T breast
A498 renal = test system: A498 renal
NCI-H23 lung = test system: NCI-H23 lung
KM12 colon = test system: KM12 colon
TK-10 renal = test system: TK-10 renal
SF-539 CNS = test system: SF-539 CNS
CAKI-1 renal = test system: CAKI-1 renal
OVCAR-5 ovarian = test system: OVCAR-5 ovarian
BT-549 breast = test system: BT-549 breast
K-562 leukemia = test system: K-562 leukemia
COLO 205 colon = test system: COLO 205 colon
SF-268 CNS = test system: SF-268 CNS
LOX IMVI melanoma = test system: LOX IMVI melanoma
UO-31 renal = test system: UO-31 renal
OVCAR-4 ovarian = test system: OVCAR-4 ovarian
DU-145 prostate = test system: DU-145 prostate
U251 CNS = test system: U251 CNS
HCT-116 colon = test system: HCT-116 colon
HL-60(TB) leukemia = test system: HL-60(TB) leukemia
SR leukemia = test system: SR leukemia
SF-295 CNS = test system: SF-295 CNS
SK-MEL-28 melanoma = test system: SK-MEL-28 melanoma
MOLT-4 leukemia = test system: MOLT-4 leukemia
PC-3 prostate = test system: PC-3 prostate
HCT-15 colon = test system: HCT-15 colon
SNB-19 CNS = test system: SNB-19 CNS
MDA-MB-435 = test system: MDA-MB-435
MDA-MB-231 breast = test system: MDA-MB-231 breast
ACHN renal = test system: ACHN renal
MALME-3M melanoma = test system: MALME-3M melanoma
786-0 renal = test system: 786-0 renal
NCI-H226 lung = test system: NCI-H226 lung
EKVX NSCLC = test system: EKVX NSCLC
HCC-2998 colon = test system: HCC-2998 colon
SK-MEL-5 melanoma = test system: SK-MEL-5 melanoma
RPMI-8226 leukemia = test system: RPMI-8226 leukemia
HOP-92 NSCLC = test system: HOP-92 NSCLC
SW-620 colon = test system: SW-620 colon
NCI-H522 lung = test system: NCI-H522 lung
UACC-62 melanoma = test system: UACC-62 melanoma
M14 melanoma = test system: M14 melanoma
NCI/ADR-RES ovarian = test system: NCI/ADR-RES ovarian
HOP-62 NSCLC = test system: HOP-62 NSCLC
CCRF-CEM leukemia = test system: CCRF-CEM leukemia
NCI-H460 lung = test system: NCI-H460 lung
OVCAR-8 ovarian = test system: OVCAR-8 ovarian
A549 NSCLC = test system: A549 NSCLC
T-47D breast = test system: T-47D breast
HT29 colon = test system: HT29 colon

With `Cc1ccc(-c2nc3nc(-c4ccc(F)cc4)nc(N4CCCNCC4)c3o2)cc1` the GI50 (SNB-75 CNS) was 1060 nM, the TGI (SNB-75 CNS) was 2240 nM and the GI50 (UACC-257 melanoma) was 1890 nM. For the same compound, the TGI (UACC-257 melanoma) was 3650 nM, the GI50 (RXF 393 renal) was 1590 nM and the TGI (RXF 393 renal) was 3110 nM. It also gave a GI50 (OVCAR-3 ovarian) of 1550 nM, a TGI (OVCAR-3 ovarian) of 2960 nM and a GI50 (SN12C renal) of 1670 nM. For the same compound, the TGI (SN12C renal) was 3130 nM, the GI50 (SK-MEL-2 melanoma) was 1730 nM and the TGI (SK-MEL-2 melanoma) was 3350 nM. The GI50 (SK-OV-3 ovarian) was 1870 nM, the TGI (SK-OV-3 ovarian) was 3370 nM and the GI50 (IGROV1 ovarian) was 1590 nM. For the same compound, the TGI (IGROV1 ovarian) was 3010 nM, the GI50 (MCF7 breast) was 1230 nM and the TGI (MCF7 breast) was 2960 nM. It also gave a GI50 (HS 578T breast) of 1780 nM, a TGI (HS 578T breast) of 3690 nM and a GI50 (A498 renal) of 1680 nM. It also gave a TGI (A498 renal) of 3120 nM, a GI50 (NCI-H23 lung) of 1820 nM and a TGI (NCI-H23 lung) of 3470 nM. It also gave a GI50 (KM12 colon) of 1790 nM, a TGI (KM12 colon) of 3420 nM and a GI50 (TK-10 renal) of 1660 nM. The TGI (TK-10 renal) was 3090 nM, the GI50 (SF-539 CNS) was 1660 nM and the TGI (SF-539 CNS) was 3040 nM. It also gave a GI50 (CAKI-1 renal) of 1440 nM, a TGI (CAKI-1 renal) of 2740 nM and a GI50 (OVCAR-5 ovarian) of 1650 nM. For the same compound, the TGI (OVCAR-5 ovarian) was 3000 nM, the GI50 (BT-549 breast) was 1660 nM and the TGI (BT-549 breast) was 3370 nM. It also gave a GI50 (K-562 leukemia) of 225 nM, a TGI (K-562 leukemia) of 539 nM and a GI50 (COLO 205 colon) of 2030 nM. It also gave a TGI (COLO 205 colon) of 4070 nM, a GI50 (SF-268 CNS) of 1730 nM and a TGI (SF-268 CNS) of 3440 nM. The GI50 (LOX IMVI melanoma) was 1180 nM, the TGI (LOX IMVI melanoma) was 2550 nM and the GI50 (UO-31 renal) was 1440 nM. For the same compound, the TGI (UO-31 renal) was 2790 nM, the GI50 (OVCAR-4 ovarian) was 1830 nM and the TGI (OVCAR-4 ovarian) was 3250 nM. For the same compound, the GI50 (DU-145 prostate) was 1680 nM, the TGI (DU-145 prostate) was 3110 nM and the GI50 (U251 CNS) was 1330 nM. The TGI (U251 CNS) was 2830 nM, the GI50 (HCT-116 colon) was 457 nM and the TGI (HCT-116 colon) was 1730 nM. The GI50 (HL-60(TB) leukemia) was 211 nM, the TGI (HL-60(TB) leukemia) was 460 nM and the GI50 (SR leukemia) was 256 nM. The TGI (SR leukemia) was 813 nM, the GI50 (SF-295 CNS) was 1820 nM and the TGI (SF-295 CNS) was 3350 nM. It also gave a GI50 (SK-MEL-28 melanoma) of 1790 nM, a TGI (SK-MEL-28 melanoma) of 3230 nM and a GI50 (MOLT-4 leukemia) of 1620 nM. It also gave a TGI (MOLT-4 leukemia) of 3470 nM, a GI50 (PC-3 prostate) of 1560 nM and a TGI (PC-3 prostate) of 3180 nM. It also gave a GI50 (HCT-15 colon) of 1060 nM, a TGI (HCT-15 colon) of 2420 nM and a GI50 (SNB-19 CNS) of 1700 nM. It also gave a TGI (SNB-19 CNS) of 3220 nM, a GI50 (MDA-MB-435) of 1710 nM and a TGI (MDA-MB-435) of 3130 nM. For the same compound, the GI50 (MDA-MB-231 breast) was 1630 nM, the TGI (MDA-MB-231 breast) was 3110 nM and the GI50 (ACHN renal) was 1730 nM. It also gave a TGI (ACHN renal) of 3100 nM, a GI50 (MALME-3M melanoma) of 1710 nM and a TGI (MALME-3M melanoma) of 3210 nM. The GI50 (786-0 renal) was 1830 nM, the TGI (786-0 renal) was 3560 nM and the GI50 (NCI-H226 lung) was 1960 nM. For the same compound, the TGI (NCI-H226 lung) was 4050 nM, the GI50 (EKVX NSCLC) was 1780 nM and the TGI (EKVX NSCLC) was 3340 nM. For the same compound, the GI50 (HCC-2998 colon) was 1680 nM, the TGI (HCC-2998 colon) was 3370 nM and the GI50 (SK-MEL-5 melanoma) was 1750 nM. The TGI (SK-MEL-5 melanoma) was 3160 nM, the GI50 (RPMI-8226 leukemia) was 1850 nM and the TGI (RPMI-8226 leukemia) was 4660 nM. The GI50 (HOP-92 NSCLC) was 1320 nM, the TGI (HOP-92 NSCLC) was 2880 nM and the GI50 (SW-620 colon) was 742 nM. For the same compound, the TGI (SW-620 colon) was 2170 nM, the GI50 (NCI-H522 lung) was 1650 nM and the TGI (NCI-H522 lung) was 3510 nM. It also gave a GI50 (UACC-62 melanoma) of 1830 nM, a TGI (UACC-62 melanoma) of 3470 nM and a GI50 (M14 melanoma) of 1860 nM. It also gave a TGI (M14 melanoma) of 3560 nM, a GI50 (NCI/ADR-RES ovarian) of 1910 nM and a TGI (NCI/ADR-RES ovarian) of 3630 nM. The GI50 (HOP-62 NSCLC) was 1740 nM, the TGI (HOP-62 NSCLC) was 3510 nM and the GI50 (CCRF-CEM leukemia) was 293 nM. The TGI (CCRF-CEM leukemia) was 1040 nM, the GI50 (NCI-H460 lung) was 1790 nM and the TGI (NCI-H460 lung) was 3530 nM.

Compound `CC1(C)CC2C(=O)c3ccccc3NC2c2ccccc21` (stereo unspecified) has a TGI (SNB-75 CNS) greater than 100000 nM, a TGI (UACC-257 melanoma) greater than 100000 nM and a TGI (RXF 393 renal) of 8580 nM. For the same compound, the TGI (OVCAR-3 ovarian) was greater than 100000 nM, the TGI (SN12C renal) was greater than 100000 nM and the TGI (IGROV1 ovarian) was greater than 100000 nM. The TGI (MCF7 breast) was greater than 100000 nM, the TGI (HS 578T breast) was 6990 nM and the TGI (A498 renal) was greater than 100000 nM. It also gave a TGI (NCI-H23 lung) greater than 64800 nM, a TGI (KM12 colon) greater than 81300 nM and a TGI (TK-10 renal) greater than 100000 nM. The TGI (SF-539 CNS) was greater than 22800 nM, the TGI (CAKI-1 renal) was greater than 100000 nM and the TGI (OVCAR-5 ovarian) was greater than 100000 nM. It also gave a TGI (OVCAR-8 ovarian) greater than 100000 nM, a TGI (A549 NSCLC) greater than 100000 nM and a TGI (BT-549 breast) greater than 100000 nM. For the same compound, the TGI (K-562 leukemia) was greater than 90600 nM, the TGI (COLO 205 colon) was 22100 nM and the TGI (SF-268 CNS) was greater than 100000 nM. The TGI (LOX IMVI melanoma) was greater than 100000 nM, the TGI (UO-31 renal) was greater than 67200 nM and the TGI (OVCAR-4 ovarian) was greater than 100000 nM. The TGI (DU-145 prostate) was greater than 100000 nM, the TGI (U251 CNS) was greater than 100000 nM and the TGI (HCT-116 colon) was greater than 100000 nM. It also gave a TGI (HL-60(TB) leukemia) of 32600 nM, a TGI (SR leukemia) greater than 100000 nM and a TGI (T-47D breast) greater than 100000 nM. It also gave a TGI (SF-295 CNS) greater than 22900 nM, a TGI (SK-MEL-28 melanoma) greater than 100000 nM and a TGI (PC-3 prostate) greater than 100000 nM. It also gave a TGI (HCT-15 colon) greater than 100000 nM, a TGI (SNB-19 CNS) greater than 100000 nM and a TGI (ACHN renal) greater than 100000 nM. It also gave a TGI (MALME-3M melanoma) greater than 100000 nM, a TGI (786-0 renal) greater than 100000 nM and a TGI (NCI-H226 lung) greater than 100000 nM. For the same compound, the TGI (EKVX NSCLC) was greater than 100000 nM, the TGI (HCC-2998 colon) was greater than 100000 nM and the TGI (SK-MEL-5 melanoma) was 26700 nM. It also gave a TGI (RPMI-8226 leukemia) of 14400 nM, a TGI (HOP-92 NSCLC) greater than 100000 nM and a TGI (SW-620 colon) greater than 100000 nM. It also gave a TGI (HT29 colon) greater than 33200 nM, a TGI (NCI-H522 lung) of 4490 nM and a TGI (UACC-62 melanoma) greater than 100000 nM. It also gave a TGI (M14 melanoma) greater than 100000 nM, a TGI (NCI/ADR-RES ovarian) greater than 100000 nM and a TGI (HOP-62 NSCLC) greater than 100000 nM. For the same compound, the TGI (CCRF-CEM leukemia) was greater than 100000 nM and the TGI (NCI-H460 lung) was greater than 100000 nM.
